Measured values from patent US11186603B2, “Heparan sulfate glycomimetic compounds and their pharmaceutical and cosmeceutical uses” (VICTORIA LINK LIMITED, priority 2017, dated 2021).
Where “and” joins values, the source holds several entries; their conditions need not be identical. Equal values may be shown once. Entries after “also recorded” stand apart in the source; their conditions may differ.

Assays:
[1] = molecular target: T1, Recombinant human heparanase (Homo sapiens, UniProt Q9Y251); assay: Heparanase inhibition colorimetric assay (fondaparinux / WST-1); assay type: biochemical; conditions: FIGS. 1 to 3; inhibitor 1 μM, 10 μM and dose response
T1 construct: made in house; host or cells: insect cells
T1 sequence (Q9Y251 158-543 limits assumed): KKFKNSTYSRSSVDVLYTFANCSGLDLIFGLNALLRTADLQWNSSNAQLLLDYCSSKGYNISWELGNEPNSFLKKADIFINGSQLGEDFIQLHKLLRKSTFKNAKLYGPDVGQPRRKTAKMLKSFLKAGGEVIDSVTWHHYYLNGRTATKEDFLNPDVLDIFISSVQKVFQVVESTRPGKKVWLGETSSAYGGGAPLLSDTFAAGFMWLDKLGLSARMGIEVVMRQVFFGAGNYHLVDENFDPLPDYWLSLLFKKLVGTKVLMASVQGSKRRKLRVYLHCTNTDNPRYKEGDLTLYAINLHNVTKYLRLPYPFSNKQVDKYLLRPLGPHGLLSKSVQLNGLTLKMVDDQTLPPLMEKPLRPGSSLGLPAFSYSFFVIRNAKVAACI
T1 sequence (Q9Y251 36-109 limits assumed): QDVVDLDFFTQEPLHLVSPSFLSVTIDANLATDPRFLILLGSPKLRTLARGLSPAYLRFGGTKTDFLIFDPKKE
Method: The assay methodology used is described in Hammond, E., et al., Development of a colorimetric assay for heparanase activity suitable for kinetic analysis and inhibitor screening, Anal. Biochem. 2010, 396 (1), 112-116.
Reagents were obtained from Sigma-Aldrich. Assays were carried out in 96-well microplates (Costar 9018 EIA/RIA, Corning) that had been pretreated with a solution of 4% bovine serum albumin (BSA) in phosphate-buffered saline containing 0.05% Tween 20 (PBST) for 2 h at 37° C. The plates were then washed three times with PBST and shaken dry. Pretreated plates were stored at 4° C. for up to 2 weeks before use.
Recombinant human heparanase was expressed in insect cells and then purified from the cell medium into which it had been secreted. […] Fractions containing pure heparanase, determined by silver staining of sodium dodecyl sulfate-polyacrylamide gel electrophoresis (SDS-PAGE), were pooled, dialyzed into 10 mM sodium phosphate (pH 7.0), concentrated using Centriplus concentrating devices (Millipore), and stored at −80° C. until use.
Assay solutions (100 μl) were composed of 40 mM sodium acetate buffer (pH 5.0) and […] fondaparinux (GlaxoSmithKline) with or without inhibitor. […] The plates were resealed with adhesive tape and developed at 60° C. for 60 min, and the absorbance was measured at 584 nm (FLUOstar, BMG Labtech).

[2] = system: human dermal fibroblast cell line, CRL2071; assay: Production of collagen type I (ELISA); assay type: cell-based
Method: (§1) Cells from the human dermal fibroblast cell line, CRL2071 (passages 12-14), obtained from normal breast skin of a person, were allowed to attach for 6-8 hours before the addition of the test compounds. After 72 h of exposure to the test articles the media was removed, cells counted and the cell-associated fraction extracted. The media and cell-associated fraction were analysed for the concentration of collagen type I using a Chondrex Human type I Collagen Detection Kit ELISA (Cat #6021).
After complete dissolution the solutions were sterile filtered through a […] syringe filter and kept at 4° C. until use. Prior to each experiment dilutions were freshly prepared by diluting to 100 nM, 1 μM or 10 μM in cell-specific media.
(§2) The test compounds, positive controls and no treatment media were added to the flasks (2.5 ml/flask) and cells were incubated for 72 h before removal of the supernatant. After removal of the supernatant, cell monolayers were trypsinsed with 2.5 ml of 0.025% trypsin/[…] in PBS to each flask. After cell detachment (7-10 min), 1 ml of the cell/trypsin mixture was added to a 20 ml counting vial containing 9 ml of normal saline. The cells were quantitated with a Coulter Counter Z2.
(§3) In some treatments cells were found floating. They were collected, counted and subjected to viability testing using 1% trypan blue staining. The remaining 1.5 ml of trypsin/cell mixture was sonicated with a Branson tip-probed sonicator for 1 min, setting 6 before centrifugation at 10,000 rpm for 10 min. The supernatant was removed and used in the collagen ELISA for the quantitation of cell-associated collagen.

[3] = system: bacterial collagenase type II from Clostridium histolyticum; assay: Colorimetric gelatinolytic assay, collagenase inhibition; assay type: biochemical; conditions: 10 μM
Method: A colorimetric gelatinolytic assay was used to evaluate the effects of heparanase inhibitors on the activity of bacterial collagenase type II from Clostridium histolyticum. The reaction mixture was prepared in a total volume of 20 μl for each well of the microplate/inhibition assay. First, 1 ul of 100 ng of bacterial collagenase and 2 μl of the heparanase inhibitor or positive control (50 μg/ml doxycycline) were added into each well of a 96-well plate and incubated at 37° C. for 60 min. On completion of the incubation, 10 μg of gelatin and 2 μl of 10× collagenase buffer (500 mM Tris-HCl, 100 mM CaCl2, and 1.5 M NaCl) were added to distilled water to obtain the final volume of 20 μl. The plate was then incubated at 37° C. for 4 h. Subsequently, the amount of gelatin remaining was quantified by the addition of 20 μl of 2.5% w/v of Coomassie Brilliant blue R-250 (Sigma-Aldrich) dissolved in 40% methanol/10% acetic acid, followed by shaking on an orbital shaker for 5 min. The supernatant was carefully removed by pipette to ensure that the gelatin pellet was not disturbed and 50 μl of dimethyl sulfoxide was added to dissolve the pellet. The plate was incubated at room temperature for 15 min followed by shaking on an orbital shaker for 5 min. The plate was then read in a Versa max microplate reader at 600 nm.

[4] = system: human dermal fibroblast cell line, CRL2071; assay: Production of hyaluronan (ELISA); assay type: cell-based; conditions: liberated, 10 μM, 72 h
Method: as §1, with “hyaluronan” for “collagen type I”, “Hyaluronan” for “Chondrex Human type I Collagen”, “ELISA.” for “ELISA (Cat #6021).”
as §2
as §3, with “hyaluronan” for “collagen”, “hyaluronan.” for “collagen.”

## O=C(CCOCC(COCCC(=O)NCCCCCCOC1OC(COS(=O)(=O)[O-])C(OS(=O)(=O)[O-])C(OS(=O)(=O)[O-])C1OS(=O)(=O)[O-])(COCCC(=O)NCCCCCCOC1OC(COS(=O)(=O)[O-])C(OS(=O)(=O)[O-])C(OS(=O)(=O)[O-])C1OS(=O)(=O)[O-])COCCC(=O)NCCCCCCOC1OC(COS(=O)(=O)[O-])C(OS(=O)(=O)[O-])C(OS(=O)(=O)[O-])C1OS(=O)(=O)[O-])NCCCCCCOC1OC(COS(=O)(=O)[O-])C(OS(=O)(=O)[O-])C(OS(=O)(=O)[O-])C1OS(=O)(=O)[O-].[Na+].[Na+].[Na+].[Na+].[Na+].[Na+].[Na+].[Na+].[Na+].[Na+].[Na+].[Na+].[Na+].[Na+].[Na+].[Na+] (stereo not shown) [Compound 17b]
[1]
  inhibition of heparanase (in words): particularly good inhibitors; also recorded: very good inhibition of heparanase
[2]
  Collagen as % of No Treatment Control (Mean ± SD), Cell-associated: 1,155 ± 25% and 2,371 ± 49% and 2,371%
[3]
  Collagenase inhibition as a % of the "No Treatment" control (Mean ± SD): 74 ± 2%
[4]
  Hyaluronan as % of No Treatment Control (Mean ± SD): 167 ± 36p = 0.233%
